Tested on: healthy balb/C mice
Assay: Tolerability of intraperitoneal pirfenidone dose
Assay type: in vivo
Details: free drug in 10% ethanol in PBS, 200 mg/kg
Method: Pirfenidone was dissolved in a 10% ethanol in PBS solution and administered intraperitoneally to healthy balb/C mice. The intraperitoneal pirfenidone dose was 200 mg/kg. […] However, the same dose was well-tolerated using albumin nanoparticles containing pirfenidone. The nanoparticles were injected twice daily for a total dose of 200 mg/kg per day for 16 days. This example highlights the ability of drug-loaded nanoparticles to slowly release drugs and lower their toxic side effects.

Cc1ccc(=O)n(-c2ccccc2)c1 [Pirfenidone, pirfenidone]
Tolerability: immediate neurological symptoms in the mice as well as death

Reference: patent US20170112777A1, “PROTEIN-BASED PARTICLES FOR DRUG DELIVERY” (Dana-Farber Cancer Institute, Inc., priority 2014, published 2017)
